{"source": "patent US10927348B2", "about": "“Human adipose tissue white and ‘brown-on-white’ progenitors for reconstructive and metabolic therapies” (University of Massachusetts, priority 2014, dated 2021)", "system": "differentiated HACAPS", "test": "RT-PCR gene expression in differentiated HACAPS exposed to forskolin or isoproterenol", "type": "cell-based, human", "settings": "isoproterenol for 6 hours after adipogenic differentiation, hydrochloride", "note": "Entries after “also recorded” stand apart in the source; their conditions may differ. Where a name gives a salt, the structure may show the parent alone.", "data": [{"smiles": "CC(C)NCC(O)c1ccc(O)c(O)c1", "note": "(stereo not shown) [isoproterenol, Isoproterenol hydrochloride]", "values": [{"measurement": "UCP1 mRNA expression", "value": "acute increase; also recorded: pronounced increase"}]}]}
